In ChEMBL document CHEMBL3860093, “Cyclic peptide-based potent and selective SIRT1/2 dual inhibitors harboring Nε-thioacetyl-lysine” (Bioorg Med Chem Lett, 2016):

Tests used:
[1] = target: T1, NAD-dependent protein deacetylase sirtuin-1 (Homo sapiens, UniProt Q96EB6); experiment: Inhibition of recombinant human GST or His6-tagged SIRT1 using H2N-HK-[Nepsilon-acetyl-lysine]-LM-COOH as substrate incubated for 10 mins in presence of beta-NAD+ by HPLC based assay
T1 sequence (Q96EB6 whole entry): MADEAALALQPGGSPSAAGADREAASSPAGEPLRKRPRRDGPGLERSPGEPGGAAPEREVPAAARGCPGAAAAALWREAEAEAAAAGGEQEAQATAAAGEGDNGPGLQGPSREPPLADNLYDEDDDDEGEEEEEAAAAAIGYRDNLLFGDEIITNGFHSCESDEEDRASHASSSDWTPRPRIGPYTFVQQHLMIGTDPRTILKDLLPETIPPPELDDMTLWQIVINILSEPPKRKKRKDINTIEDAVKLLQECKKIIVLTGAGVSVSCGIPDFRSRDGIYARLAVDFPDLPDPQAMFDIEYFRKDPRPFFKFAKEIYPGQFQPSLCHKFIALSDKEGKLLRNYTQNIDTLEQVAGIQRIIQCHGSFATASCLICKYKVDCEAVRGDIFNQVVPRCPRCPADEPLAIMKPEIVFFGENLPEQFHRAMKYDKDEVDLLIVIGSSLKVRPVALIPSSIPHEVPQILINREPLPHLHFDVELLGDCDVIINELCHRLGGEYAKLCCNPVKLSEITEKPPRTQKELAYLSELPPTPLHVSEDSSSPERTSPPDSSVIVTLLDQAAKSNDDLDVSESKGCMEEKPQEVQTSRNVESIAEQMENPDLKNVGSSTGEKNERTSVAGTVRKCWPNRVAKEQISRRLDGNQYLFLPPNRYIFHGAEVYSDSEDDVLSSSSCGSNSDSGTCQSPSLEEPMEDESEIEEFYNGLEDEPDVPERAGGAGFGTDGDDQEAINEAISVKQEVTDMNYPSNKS

[2] = target: T2, NAD-dependent protein deacetylase sirtuin-2 (Homo sapiens, UniProt Q8IXJ6); experiment: Inhibition of recombinant human His6-tagged SIRT2 using H2N-HK-[Nepsilon-acetyl-lysine]-LM-COOH as substrate incubated for 12 mins in presence of beta-NAD+ by HPLC based assay
T2 sequence (Q8IXJ6 whole entry): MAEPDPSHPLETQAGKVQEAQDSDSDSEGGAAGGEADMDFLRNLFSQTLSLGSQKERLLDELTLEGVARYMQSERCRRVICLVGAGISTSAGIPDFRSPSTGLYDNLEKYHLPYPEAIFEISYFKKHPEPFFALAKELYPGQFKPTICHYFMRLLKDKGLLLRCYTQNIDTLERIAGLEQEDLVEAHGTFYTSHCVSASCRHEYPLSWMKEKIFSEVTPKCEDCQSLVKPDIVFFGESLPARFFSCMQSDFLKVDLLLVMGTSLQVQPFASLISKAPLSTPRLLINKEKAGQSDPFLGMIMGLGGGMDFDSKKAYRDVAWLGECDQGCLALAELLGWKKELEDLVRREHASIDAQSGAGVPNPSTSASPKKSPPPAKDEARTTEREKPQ

[3] = target: T3, NAD-dependent protein deacetylase sirtuin-3, mitochondrial (Homo sapiens, UniProt Q9NTG7); experiment: Inhibition of recombinant human His6-tagged SIRT3 using H2N-HK-[Nepsilon-acetyl-lysine]-LM-COOH as substrate incubated for 10 mins in presence of beta-NAD+ by HPLC based assay
T3 sequence (Q9NTG7 whole entry): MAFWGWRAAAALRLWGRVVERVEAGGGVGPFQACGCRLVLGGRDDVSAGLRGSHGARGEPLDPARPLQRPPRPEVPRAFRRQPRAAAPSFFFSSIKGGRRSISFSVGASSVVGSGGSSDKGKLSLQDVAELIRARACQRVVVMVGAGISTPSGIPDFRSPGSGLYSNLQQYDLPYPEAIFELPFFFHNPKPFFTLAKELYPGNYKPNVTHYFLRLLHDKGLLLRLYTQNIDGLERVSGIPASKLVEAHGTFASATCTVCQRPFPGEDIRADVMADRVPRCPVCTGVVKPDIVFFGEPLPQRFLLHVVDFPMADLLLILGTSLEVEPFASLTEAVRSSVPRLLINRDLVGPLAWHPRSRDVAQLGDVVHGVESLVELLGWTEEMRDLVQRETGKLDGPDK

[4] = organism: Homo sapiens; experiment: Selectivity ratio of IC50 for recombinant human His6-tagged SIRT3 to IC50 for recombinant human GST or His6-tagged SIRT1
[5] = organism: Homo sapiens; experiment: Selectivity ratio of IC50 for recombinant human His6-tagged SIRT3 to IC50 for recombinant human His6-tagged SIRT2
[6] = Stability of compound assessed as Streptomyces griseus pronase-mediated compound hydrolysis up to 60 mins by HPLC analysis; format: ADME; settings: 1 h
[7] = target: T4, NAD-dependent protein deacetylase sirtuin-1 (Homo sapiens) (UniProt Q96EB6); experiment: Inhibition of SIRT1 in human HCT116 cells assessed as increase in p53 acetylation at lysine-382 residue after 8 hrs by Western blot assay; format: cell-based; settings: HCT-116
T4 sequence (whole entry): T1 sequence (Q96EB6 whole entry)

[8] = target: NAD-dependent protein deacylase sirtuin-5, mitochondrial (Homo sapiens, UniProt Q9NXA8); experiment: Inhibition of recombinant human GST-tagged SIRT5 using CH3CONH-AR-[Nepsilon-succinyl-lysine]-ST-CONH2 as substrate incubated for 5 mins in presence of beta-NAD+ by HPLC based assay
[9] = target: NAD-dependent protein deacylase sirtuin-6 (Homo sapiens, UniProt Q8N6T7); experiment: Inhibition of recombinant human His6-tagged SIRT6 using H2N-EALPK-[Nepsilon-myristoyl-lysine]-TGGPQ-CONH2 as substrate incubated for 12 mins in presence of beta-NAD+ by HPLC based assay
[10] = Stability of compound assessed as Streptomyces griseus pronase-mediated compound hydrolysis up to 6 mins by HPLC analysis; format: ADME; settings: 0.1 h
[11] = Stability of compound assessed as Streptomyces griseus pronase-mediated compound hydrolysis up to 40 mins by HPLC analysis; format: ADME

Sequence of NAD-dependent protein deacylase sirtuin-5, mitochondrial (Q9NXA8 whole entry): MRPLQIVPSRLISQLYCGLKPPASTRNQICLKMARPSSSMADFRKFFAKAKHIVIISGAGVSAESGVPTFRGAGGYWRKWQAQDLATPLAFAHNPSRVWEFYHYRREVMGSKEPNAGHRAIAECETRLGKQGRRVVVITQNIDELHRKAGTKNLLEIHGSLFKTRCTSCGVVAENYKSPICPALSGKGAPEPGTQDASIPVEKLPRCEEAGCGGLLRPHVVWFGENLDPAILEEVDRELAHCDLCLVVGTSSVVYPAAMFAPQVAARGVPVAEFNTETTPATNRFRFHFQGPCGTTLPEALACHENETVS
Sequence of NAD-dependent protein deacylase sirtuin-6 (Q8N6T7 whole entry): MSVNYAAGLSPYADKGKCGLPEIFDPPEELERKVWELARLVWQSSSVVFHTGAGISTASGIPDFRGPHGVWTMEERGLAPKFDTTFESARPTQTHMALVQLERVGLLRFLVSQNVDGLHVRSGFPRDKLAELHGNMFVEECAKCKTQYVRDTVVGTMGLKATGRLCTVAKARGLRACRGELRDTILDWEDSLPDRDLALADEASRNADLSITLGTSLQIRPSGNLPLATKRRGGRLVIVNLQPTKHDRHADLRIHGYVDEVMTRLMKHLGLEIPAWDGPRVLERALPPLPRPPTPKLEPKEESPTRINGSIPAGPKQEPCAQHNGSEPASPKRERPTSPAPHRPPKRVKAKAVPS

Row | IC50 [1] [µM] | IC50 [2] [µM] | IC50 [3] [µM] | Ratio IC50 [4] | Ratio IC50 [5] | Stability [6] | inhibition [7] | IC50 [8] [µM] | IC50 [9] [µM] | Stability [10] | Stability [11] | Compound
1 | 0.22 | 0.24 | 0.47 | 2.1 | 2 | – | – | – | – | – | – | CCCC[C@@H]1NC(=O)CCCCCCC(=O)NCCCC[C@@H](C(N)=O)NC(=O)[C@H](CCCCNC(C)=S)NC1=O
2 | 0.82 | 0.42 | 1.48 | 1.8 | 3.5 | – | – | – | – | – | – | CCCC[C@@H]1NC(=O)CCCCCCC(=O)NCC[C@@H](C(N)=O)NC(=O)[C@H](CCCCNC(C)=S)NC1=O
3 | 0.71 | 1.5 | 3.5 | 4.9 | 2.3 | – | – | – | – | – | – | CC(=S)NCCCC[C@@H]1NC(=O)[C@H](Cc2ccc3ccccc3c2)NC(=O)CCCCCCC(=O)NC[C@@H](C(N)=O)NC1=O
4 | 22 | 24.3 | 56.9 | 2.6 | 2.3 | – | – | – | – | – | – | CC(=S)NCCCC[C@@H]1NC(=O)CNCCC(=O)NCCCC[C@@H](C(N)=O)NC1=O
5 | 0.27 | 0.22 | 1.82 | – | – | Stable | Dose-dependent effect | – | – | – | – | CCCC[C@@H]1NC(=O)CCCCCCC(=O)NCCC[C@@H](C(N)=O)NC(=O)[C@H](CCCCNC(C)=S)NC1=O
6 | 0.68 | 0.48 | 3.18 | 4.7 | 6.6 | – | – | > 300 | > 2000 | – | – | CC(=S)NCCCC[C@@H]1NC(=O)[C@H](Cc2csc3ccccc23)NC(=O)CCCCCCC(=O)NCCC[C@@H](C(N)=O)NC1=O
7 | 1.27 | 1.16 | 10 | 7.9 | 8.6 | – | – | > 2000 | > 1000 | – | – | CC(=S)NCCCC[C@@H]1NC(=O)[C@H](Cc2csc3ccccc23)NC(=O)CCCCCCC(=O)NCC[C@@H](C(N)=O)NC1=O
8 | 1.1 | 2.4 | – | – | – | Stable | – | > 6000 | > 4000 | – | – | CC(=S)NCCCC[C@@H]1NC(=O)[C@H](Cc2ccc3ccccc3c2)NC(=O)CCCCCCC(=O)NCC[C@@H](C(N)=O)NC1=O
9 | 37.5 | 20.3 | – | – | – | – | – | – | – | – | – | CC(C(=O)Nc1cccc(/N=C/c2c(O)ccc3ccccc23)c1)c1ccccc1 (stereo unspecified) [SALERMIDE]
10 | 3.84 | 3.9 | 3.39 | 0.9 | 0.9 | – | – | – | – | – | – | CC(=S)NCCCC[C@@H]1NC(=O)CNC(=O)CCCCCCC(=O)NCCCC[C@@H](C(N)=O)NC1=O
11 | 0.57 | 1.4 | 1.94 | 3.4 | 1.4 | – | – | – | – | – | – | CC(=S)NCCCC[C@@H]1NC(=O)[C@H](Cc2ccc3ccccc3c2)NC(=O)CCCCCCC(=O)NCCCC[C@@H](C(N)=O)NC1=O
12 | 1.21 | 4.24 | 2.51 | 2.1 | 0.6 | – | – | – | – | – | – | CC(=S)NCCCC[C@@H]1NC(=O)[C@H](Cc2csc3ccccc23)NC(=O)CCCCCCC(=O)NC[C@@H](C(N)=O)NC1=O
13 | – | – | – | – | – | – | – | – | – | Unstable | – | H-HKK(Ac)LM-OH
14 | 0.45 | 0.18 | 1.06 | 2.4 | 5.9 | – | – | – | – | – | – | CCCC[C@@H]1NC(=O)CCCCCCC(=O)NC[C@@H](C(N)=O)NC(=O)[C@H](CCCCNC(C)=S)NC1=O
15 | 0.18 | 1.2 | 3.2 | 17.8 | 2.7 | – | – | – | – | – | – | CC(=S)NCCCC[C@@H]1NC(=O)[C@H](Cc2ccc3ccccc3c2)NC(=O)CCCCCCC(=O)NCCC[C@@H](C(N)=O)NC1=O
16 | 0.5 | 0.89 | 3.82 | 7.6 | 4.3 | – | – | > 200 | > 1000 | – | Stable | CC(=S)NCCCC[C@@H]1NC(=O)[C@H](Cc2csc3ccccc23)NC(=O)CCCCCCC(=O)NCCCC[C@@H](C(N)=O)NC1=O
17 | – | – | 25.7 | – | – | – | – | – | – | – | – | CN(C)CCCCC(=O)Nc1ccc(NC(=S)NC(=O)c2ccc(C(C)(C)C)cc2)cc1
